These results are taken from patent US7407772B2, “Screening and selection methods for statin drug combinations” (Merck & Co., Inc., priority 2001, dated 2008).

“Also recorded” adds a separate entry of the source. Read-outs that look alike come from different tables or passages of the source.

The conditions of data set [1]: cited from earlier work; for increase of plasma AUC by gemfibrozil: humans, multiple oral doses of gemfibrozil, single oral dose of simvastatin or lovastatin; for Cmax: reported values following 600 mg bid gemfibrozil or 200 mg qd fenofibrate in humans.
In data set [2] the test system is glucuronidation of simvastatin acid (UDPGA-dependent). In words: Inhibition of simvastatin acid glucuronidation in dog liver microsomes. Type of data set: in vitro ADME. The conditions noted are these: pH 7, probe simvastatin acid (10-20 μM).
Method: A typical incubation mixture, in a final volume of 0.3 ml, contained 0.45 mg human or animal liver microsomes, preincubated with 0.045 mg Brij 58 (or 0.0225 mg alamethicin) for 15 min, 20 mM MgCl2, 5 mM UDPGA, and 0.05 M Tris buffer, pH 7.0.
Data set [3] in a line: Pharmacokinetics after oral simvastatin in dogs pretreated with vehicle, gemfibrozil or fenofibrate. To be noted: dog, in vivo.
Data set [4] deals with CYP3A (SVA, AVA); CYP3A and CYP2C8 (CVA). In words: in vitro. The conditions noted are these: human, human liver microsomes, pH 7.4. On the technique in general: Liver microsomes are vesicles of endoplasmic reticulum, rich in cytochrome P450 enzymes.
Method: For oxidative metabolism studies, a typical incubation mixture, in a final volume of 0.5 mL, contained 0.1-0.25 mg liver microsomal protein, 0.1M sodium phosphate buffer (pH 7.4), 10 mM MgCl2, and 1 mM NADPH. […] Incubations were conducted at 37° C. and were terminated after 10-20 min (with NADPH) by the addition of ACN (acetonitrile). The ACN extracts were evaporated to dryness and reconstituted for analysis by HPLC with UV detection.
In brief, samples, held in an autosampler set at 5° C., were chromatographed on either a Betasil C18 (250×4.6 mm, 5 μm) or a Zorbax C18 (Waters, 150×4.6 mm, 5 μm) column, preceded by a C18 guard column, with a linear gradient of acetonitrile in 10 or 25 mM ammonium acetate, pH 4.5. […] Due to unavailability of authentic standards for oxidative metabolites of statins, quantitation of these metabolites in the in vitro incubation mixtures was accomplished using standard curves for their respective statins, assuming identical extraction recoveries and extinction coefficients between the parent drug and its corresponding metabolites.
Data set [5] in a line: Glucuronidation assay: statin glucuronidation in human liver microsomes. In kind it is in vitro ADME. To be noted: human, pH 7, read-out: intrinsic clearance of glucuronidation.
Method: (§5) The term “glucuronidation assay” as used herein refers to the following assay when performed with human liver microsomes. […] Unless otherwise specified, the reaction was started by the addition of statins following a 3-min pre-incubation at 37° C., and the reaction was incubated for 45-60 min. Control experiments included incubation mixtures with either microsomes or UDPGA missing. The reaction was terminated, at appropriate time intervals, by the addition of 0.8 ml acetonitrile (ACN). […] The ability of statins to undergo glucuronidation was measured by formation of statin glucuronide and statin lactones, and expressed in term of intrinsic clearance (Clint). The CLint was estimated by dividing Vmax by apparent Km. The Km and Vmax values were estimated using a nonlinear regression program, based on a Michealis-Menten equation as follow: V=Vmax×C/(Km+C); V=formation rate of statin glucuronide+lactone, and C=substrate concentration. Incubations were performed in triplicate for human liver microsomes (pooled from n=10) or UGTs at 250-μM substrate concentration. Values are mean±SD (n=3 to 5).
The subject of data set [6] is human liver microsomes. The data set is described as above. Type of data set: in vitro ADME. The conditions noted are these: preliminary data.
Method: as §5
Data set [7] concerns human recombinant UGT isoforms. Put plainly: UGT-specific glucuronidation assay, identification of responsible isoforms. In kind it is in vitro ADME. As to the method: To examine UGT isoforms responsible for the glucuronidation of statins, incubations with various human recombinant UGT isoforms were performed using the same conditions as described herein for human liver microsomes in Example 1, except that the mixture contained 0.3 mg UGTs and was incubated for up to 60 min.

For data set [8] the following is noted: dog, in vivo.
Data set [9] in a line: Ex vivo simvastatin hydrolysis in dog plasma. In kind it is in vitro ADME.
The test system of data set [10] is glucuronidation of RVA (UDPGA-dependent). In words: in vitro. The conditions noted are these: human, liver microsomes, pH 7, probe RVA (10-20 μM), IC50, RVA Glucuronidation, statin 10-20 μM, UDPGA. The protocol: (§1) The term “glucuronidation inhibition assay” as used herein refers to the following assay when performed with human liver microsomes.
(§2) The effects of inhibitors on metabolism of the statins were expressed as percentages of metabolites (statin glucuronides and lactones) formed in the presence of inhibitors relative to the corresponding values obtained in the absence of inhibitors (control) on the same day.
(§3) Incubations were performed in triplicate for each concentration of inhibitors, and involved co-incubation of GFZ or ketoconazole (1 μM) with statins (10-20 μM) in the presence of NADPH (oxidation) or UDPGA (glucuronidation).

The test system of data set [11] is glucuronidation of AVA (UDPGA-dependent). Put plainly: in vitro. The conditions noted are these: human, liver microsomes, pH 7, probe AVA (10-20 μM), IC50, AVA Glucuronidation, statin 10-20 μM, UDPGA. The protocol: as §1, §2, §3
Data set [12] relates to glucuronidation of CVA (UDPGA-dependent). In words: in vitro. The conditions noted are these: human, liver microsomes, pH 7, probe CVA (10-20 μM), IC50, CVA Glucuronidation, statin 10-20 μM, UDPGA. As to the method:
as §1, §2, §3

The test system of data set [13] is human liver microsomes. In words: in vitro. As to the method: as §1, §2, §3
The subject of data set [14] is glucuronidation of SVA (UDPGA-dependent). Put plainly: in vitro. The conditions noted are these: human, liver microsomes, pH 7, probe SVA (10-20 μM), IC50, SVA Glucuronidation, statin 10-20 μM, UDPGA. As to the method:
as §1, §2, §3

Data set [15] can be described thus: Clinical pharmacokinetics in humans (literature). In kind it is in vivo. The conditions noted are these: at their respective therapeutic doses.
For data set [16] the following is noted: dog, in vivo, po.
The test system of data set [17] is oxidative metabolism of simvastatin acid (NADPH-dependent). Put plainly: Inhibition of simvastatin acid oxidation in dog liver microsomes. In kind it is in vitro ADME. To be noted: pH 7.4, probe simvastatin acid (10-20 μM).
In data set [18] the test system is oxidative metabolism of AVA (NADPH-dependent). Put plainly: in vitro. The conditions noted are these: human, pH 7.4. The protocol:
(§4) The term “oxidation inhibition assay” as used herein refers to the following assay when performed with human liver microsomal protein.
as §3

Data set [19] has as its system CYP3A-mediated oxidation of SVA. In words: in vitro. To be noted: human, pH 7.4. As to the method: as §4, §3
Data set [20] relates to oxidation of CVA to O-demethylated metabolite M2. Put plainly: in vitro. The conditions noted are these: human, pH 7.4. The protocol:
as §4, §3

In data set [21] the test system is oxidation of CVA to hydroxylated metabolite M1. Put plainly: in vitro. To be noted: human, pH 7.4. The protocol: as §4, §3
Data set [22] concerns the target T1, CYP3A4 (Homo sapiens, UniProt P08684).
T1 construct: in human liver microsomes, an in vitro assay for determining hepatic CYP3A4 activity; host or cells: human liver microsomes
To be noted: human liver microsomes; cited from earlier work.

Data set [23] has as its system oxidation of CVA (both oxidative metabolites). In words: in vitro. To be noted: human, pH 7.4. As to the method: as §4, §3
Data set [24] concerns oxidation of CVA to metabolite M1. In words: in vitro. To be noted: human, pH 7.4. As to the method: as §4, §3
In data set [25] the test system is oxidative metabolism of SVA (NADPH-dependent). Put plainly: in vitro. The conditions noted are these: human, pH 7.4. The protocol: as §4, §3
Data set [26] has as its system oxidation of CVA to metabolite M2. In words: in vitro. To be noted: human, pH 7.4. As to the method: as §4, §3

Usually IC50 stands for the concentration that inhibits the measured activity by half. What is called Cmax is the peak of the concentration-time curve. Broadly, the AUC(0-t) is exposure summed from dosing to a finite time, without extrapolation to infinity. By inhibition is commonly meant the change of the read-out against control, counted positive when it falls.

T1 sequence (P08684 whole entry): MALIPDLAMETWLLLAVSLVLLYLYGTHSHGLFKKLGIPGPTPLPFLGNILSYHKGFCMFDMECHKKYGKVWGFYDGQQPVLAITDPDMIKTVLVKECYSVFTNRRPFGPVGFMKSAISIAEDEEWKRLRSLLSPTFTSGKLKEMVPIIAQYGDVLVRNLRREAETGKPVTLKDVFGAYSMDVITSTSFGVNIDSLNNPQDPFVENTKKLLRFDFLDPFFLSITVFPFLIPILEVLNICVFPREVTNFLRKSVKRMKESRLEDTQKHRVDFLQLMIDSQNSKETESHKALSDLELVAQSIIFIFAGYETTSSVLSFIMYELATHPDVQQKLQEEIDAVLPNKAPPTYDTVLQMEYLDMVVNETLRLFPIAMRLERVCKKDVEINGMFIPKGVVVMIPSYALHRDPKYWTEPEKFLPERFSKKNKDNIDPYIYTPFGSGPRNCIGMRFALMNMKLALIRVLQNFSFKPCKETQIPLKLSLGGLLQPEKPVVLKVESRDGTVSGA

For `CC[C@H](C)C(=O)O[C@H]1C[C@@H](C)C=C2C=C[C@H](C)[C@H](CC[C@@H]3C[C@@H](O)CC(=O)O3)[C@H]21` [lovastatin lactone, lovastatin], the “increase of plasma AUC by gemfibrozil” value in data set [1] is “no significant effect”.

In turn, `CC(C)(Oc1ccc(C(=O)c2ccc(Cl)cc2)cc1)C(=O)O` [Fenofibric acid, fenofibric acid] returned an IC50 in data set [2] of 283 µM. In [3] (Cmax of fenofibric acid, fenofibrate treated), the Cmax stood at 77 ± 9.7 µM.

As for `COCc1c(C(C)C)nc(C(C)C)c(/C=C/[C@@H](O)C[C@@H](O)CC(=O)O)c1-c1ccc(F)cc1` [CVA, cerivastatin], in data set [4], the microsomal CLint amounted to 10 µL/min/mg. For the same molecule, the microsomal CLint in data set [5] amounted to 2.9 µL/min/mg. For the same molecule, in [6], the “CLint, Glucuronidation” value is 2.9 ul/min/mg protein and the “Relative Contribution of glucuronidation to overall metabolism” value was 22.

Regarding `CCC(C)(C)C(=O)O[C@H]1C[C@@H](C)C=C2C=C[C@H](C)[C@H](CC[C@@H](O)C[C@@H](O)CC(=O)O)[C@H]21` [Simvastatin acid, simvastatin acid], the “increase of plasma AUC by gemfibrozil” value in [1] is recorded as 185%. Besides, in data set [7] (listed as SVA), the “UGT isozymes catalyzing glucuronidation of the substance” value (“UGT isozymes catalyzing glucuronidation” below) was “UGT1A1 and 1A3; also recorded: UGT1A10”.

As for `Cc1ccc(C)c(OCCCC(C)(C)C(=O)O)c1` [Gemfibrozil, gemfibrozil], the Cmax is 100 to 300 µM in data set [1] and 446 ± 66 µM in data set [3] (po, 75 mg/kg, Cmax of gemfibrozil, gemfibrozil treated (75 mg/kg bid for 5 days)). Further, the “decrease in the biliary excretion of simvastatin-glucuronide” value in [8] is listed as around 2 fold. The “effect on ex vivo simvastatin hydrolysis” value is given as “Minimal effect” in [9] and “did not affect” in data set [9] (listed as gemfibrozil). Besides, the IC50 in data set [10] was around 400 µM; in data set [11], 314 µM; in data set [12] it was 82 µM; in data set [13] (read-out: IC50, AVA Glucuronidation, statin 10-20 μM, UDPGA) it was 316 µM; in [14], 354 µM; in [2], 195 µM. Moreover, the IC50 in [17] is around 1000 µM; in data set [18] it was above 750 µM; in data set [19], above 800 µM; in [20], 220 µM; in data set [21], 87 µM. In addition, the “mode of inhibition of simvastatin acid glucuronidation” value in [13] is “competitive inhibition”. In addition, the “UGT isozymes catalyzing glucuronidation” value in [7] was “UGT1A1 and 1A3”. Besides, the “exposure in humans relative to fenofibrate/fenofibric acid” value in data set [15] is listed as above 2 fold. For the same molecule, the “SVA/SV AUC ratio, Gem/vehicle” value in data set [16] came out at 5.4 ± 2.1. Besides, the AUC(0-t) in data set [3] (po, 75 mg/kg, AUC 12 hr of gemfibrozil, gemfibrozil 75 mg/kg bid for 5 days) came out at 1440 ± 176 µM·h. For the same molecule, the “effect on CYP3A4 mediated 1'-hydroxylation of midazolam” value in data set [22] is listed as “no appreciable inhibitory effect”.

Turning to `CC[C@H](C)C(=O)O[C@H]1C[C@@H](C)C=C2C=C[C@H](C)[C@H](CC[C@@H](O)C[C@@H](O)CC(=O)O)[C@H]21` [lovastatin acid], the “increase of plasma AUC by gemfibrozil” value in [1] is recorded as 280%.

Consider `CC(C)OC(=O)C(C)(C)Oc1ccc(C(=O)c2ccc(Cl)cc2)cc1` [Fenofibrate, fenofibrate], for which the Cmax in data set [1] was 15 to 55 µM. Also, the “UGT isozymes catalyzing glucuronidation” value in [7] was “UGT1A9 and isoforms of the UGT2B subfamily”.

With `CC(=O)N1CCN(c2ccc(OCC3COC(Cn4ccnc4)(c4ccc(Cl)cc4Cl)O3)cc2)CC1` (stereo not drawn) [Ketoconazole, ketoconazole], the inhibition at 1 µM was above 90% in [18]; at most 50% in [23]; 68% in data set [24]; above 85% in data set [25]; around 50% in data set [26].
